# Test results reported in patent US8901301B2, “Pyrrolo[2,3-]pyridine kinase inhibitors” (Plexxikon Inc., priority 2009, dated 2014).
# Legend:
# [1] = test system: A375 cells; experiment: Cell growth inhibition (Cell Titer Glo), A375; assay type: cell-based; details: Homo sapiens, A-375, 72 h; B-Raf V600E cell line, 3 days
# Method: (§1) Compounds are assessed in a variety of cell based assays, employing cells with or without B-Raf V600E mutation, for example cell lines with B-Raf V600E mutation (A375 and COLO205), as well as tumorigenic cell lines with wild-type B-RAF (SW620 and SK-MEL-2). Reagent and assay conditions are as follows:
# A375 cells growth medium: • Dulbecco's modified Eagle's medium, 4 mM L-glutamine, 4.5 g/L D-glucose, 10% fetal bovine serum.
# (§2) SK-MEL-2 cells growth medium: • Minimum Eagle essential medium, 2 mM L-glutamine, 1.5 g/L sodium bicarbonate, 0.1 mM non-essential amino acids, 1.0 mM sodium pyruvate, 10% fetal bovine serum. • On day 1, cells are seeded in growth media in 200 μL per well in a 96-well polystyrene tissue culture plate at 2,000 cells per well (A375, COLO205, SK-MEL-2) or 5,000 cells per well for SW620, and incubated at 37° C. and 5% CO2 overnight. • On day 2, compound at 4 mM in dimethyl sulfoxide is serially diluted 1:4 (10 μL with 30 μL dimethyl sulfoxide) seven times for a total of 8 concentration points. For each dilution point a 1 μL aliquot is added to a well containing cells (highest dilution point at 20 μM), with 1 μL of dimethyl sulfoxide as a negative control (each sample at 0.5% dimethyl sulfoxide). The cells are incubated for 3 days at 37° C. in 5% CO2. • On day 5, Cell Titer Glo (Promega) is thawed and added 100 μL to each well and the plate shaken for 1-2 minutes. The plates are incubated for 10 minutes at room temperature, then […] signal is read (e.g. on Safire reader). The measured fluoresence correlates directly with cell number, such that the reading as a function of compound concentration is used to determine the IC50 value.
# [2] = test system: COLO205 cells; experiment: Cell growth inhibition (Cell Titer Glo), COLO205; assay type: cell-based; details: Homo sapiens, COLO 205, 72 h; B-Raf V600E cell line, 3 days
# Method: as §1
# COLO205 cells growth medium: • RPMI 1640, 2 mM L-glutamine, 1.5 g/L sodium bicarbonate, 4.5 g/L D-glucose, 10 mM HEPES, 1.0 mM sodium pyruvate, 10% fetal bovine serum.
# as §2
# [3] = test system: SW620 cells; experiment: Cell growth inhibition (Cell Titer Glo), SW620; assay type: cell-based; details: Homo sapiens, SW-620, 72 h; wild-type B-RAF cell line, 3 days
# Method: as §1
# SW620 cells growth medium: • Leibovitz's L-15 medium, 2 mM L-glutamine, 10% fetal bovine serum.
# as §2
# [4] = biological target: Hgk (Homo sapiens, UniProt O95819); experiment: Biochemical inhibitory activity, other protein kinases: Hgk; details: for Kinase having IC50 of >1 μM: listing of the kinase means IC50 >1 μM
# [5] = biological target: Kdr (Homo sapiens, UniProt P35968); experiment: Biochemical inhibitory activity, other protein kinases: Kdr; details: listing of the kinase means IC50 >1 μM
# [6] = Relative solubility by turbidity in aqueous buffers; assay type: physicochemical; details: for turbidity threshold (L, M, H) 4.5: pH 4.5 (Simulated Intestinal fluid); for turbidity threshold (L, M, H) 6.8: pH 6.8 (Simulated Intestinal fluid); for turbidity threshold (L, M, H) 7.4: pH 7.4 (Hepes Buffer)
# Method: As an indication of relative solubility, the turbidity of compounds in aqueous solutions is assessed. To assess possible compound properties in different physiological compartments, such as stomach, intestine, and blood, a series of aqueous buffers with varying pH is used. Thus each compound is diluted into four different physiologically relevant buffers and solution turbidity is measured by spectrophotometry.
# Compounds are dissolved at a concentration of 25 mM in dimethyl sulfoxide, then serially diluted 1:1 into a 96 well plate, diluting 10 times in pure dimethyl sulfoxide, with the final well of each row a dimethyl sulfoxide blank. In an assay plate, 99 μL of appropriate buffer is added to each well, and 1 μL of each sample dilution is added to the buffer, achieving a range of final total concentrations in aqueous solutions having different pH. The buffers used are Simulated Gastric Fluid (SGF-pH 1.5) 0.5M NaCl, pH 1.5; Simulated Intestinal fluid (SIF-pH 4.5 and pH 6.8) 0.05M NaH2PO4, pH 4.5 and 6.8; and Hepes Buffer (HEPES-pH 7.4) 10 mM HEPES, 150 mM NaCl, pH 7.4. Control compounds pyrene, estriol and propranolol HCl are also assessed. Plates are spun and then mixed for 1 minute, and the absorbance is read using a Tecan Safire II to read wavelengths in the visible range (490, 535, and 650 nm) at four locations per well, reflecting the degree of turbidity present. The average optical density for each wavelength in each well is graphed vs. compound concentration, and the concentration at which the curve crosses a threshold O.D. of 0.01 for each wavelength is reported as the endpoint turbidity assay result. The average of the three wavelengths is used to compare turbidity of compounds. Compounds are considered to have low solubility if the threshold concentration is <31.3 μM, moderate solubility if the threshold concentration is 31.3 μM to 250 μM, and high solubility if the threshold concentration is >250 μM.
# [7] = biological target: T1, CYP2D6 (Homo sapiens, UniProt P10635); experiment: CYP inhibition (fluorescent substrate), CYP2D6; assay type: in vitro ADME; details: substrate AMMC; read-out: Cyp IC50 (μM) 2D6
# T1 construct: purchased BD Biosciences
# Method: CYP (Cytochrome P450) enzymes are the major drug metabolizing enzymes present in the liver. The inhibition of CYP enzyme activity (IC50) for each of CYP1A2, CYP2C19, CYP2C9, CYP2D6, CYP3A4(BFC) and CYP3A4(BQ) is determined for compounds, where inhibition of metabolism of a known substrate leads to a decrease in the fluorescence of the metabolized product. The fluorescence of the product is monitored as a function of compound concentration. Compounds are dissolved in dimethyl sulfoxide to a concentration of 100 mM. These are diluted 1 μL into 82 μL of acetonitrile. An 11 μL aliquot of this solution is then added to 204 μL of cofactor mix (1.3% NADPH Regeneration system Solution A, 1.04% NADPH Regeneration system Solution B from BD Biosciences, 5% acetonitrile and 0.05% dimethyl sulfoxide). These are then serially diluted 1:1 (160 μL to 160 μL co-factor mix) for a total of 10 points. A 10 μL aliquot of this final mixture is dispensed into 384 well assay plates and incubated for 10 minutes at 37° C. […] Assay plates are incubated at 37° C. (CYP1A2-15 min; CYP2C9-45 min; CYP2C19, 2D6 and 3A4-30 min) and read in a Tecan Safire 2 plate reader (CYP1A2, 2C19 and 3A4 409 ex/460 em; CYP2C9 and 2D6 409 ex/530 em). The signal versus compound concentration is used to determine the IC50. The enzymes and substrates for this assay are obtained from BD Biosciences.
# [8] = Relative solubility by turbidity in aqueous buffers; assay type: physicochemical; details: pH 1.4 as headed (Simulated Gastric Fluid)
# T1 sequence (P10635 whole entry): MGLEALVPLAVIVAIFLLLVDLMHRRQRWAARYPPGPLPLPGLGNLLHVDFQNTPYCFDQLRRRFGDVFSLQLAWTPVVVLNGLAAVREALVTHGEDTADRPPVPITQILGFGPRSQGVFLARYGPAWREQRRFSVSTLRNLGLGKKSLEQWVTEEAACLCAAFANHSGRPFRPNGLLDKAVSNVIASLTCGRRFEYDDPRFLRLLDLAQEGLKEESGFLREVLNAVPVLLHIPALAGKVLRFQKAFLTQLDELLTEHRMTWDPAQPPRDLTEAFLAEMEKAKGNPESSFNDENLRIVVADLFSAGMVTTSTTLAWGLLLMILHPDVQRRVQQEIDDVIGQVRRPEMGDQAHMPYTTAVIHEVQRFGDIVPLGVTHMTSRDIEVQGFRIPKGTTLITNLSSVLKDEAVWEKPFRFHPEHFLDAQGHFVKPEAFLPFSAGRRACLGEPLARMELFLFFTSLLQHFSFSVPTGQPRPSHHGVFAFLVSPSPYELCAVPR
# Kdr, sequence (P35968 20-1356, species assumed): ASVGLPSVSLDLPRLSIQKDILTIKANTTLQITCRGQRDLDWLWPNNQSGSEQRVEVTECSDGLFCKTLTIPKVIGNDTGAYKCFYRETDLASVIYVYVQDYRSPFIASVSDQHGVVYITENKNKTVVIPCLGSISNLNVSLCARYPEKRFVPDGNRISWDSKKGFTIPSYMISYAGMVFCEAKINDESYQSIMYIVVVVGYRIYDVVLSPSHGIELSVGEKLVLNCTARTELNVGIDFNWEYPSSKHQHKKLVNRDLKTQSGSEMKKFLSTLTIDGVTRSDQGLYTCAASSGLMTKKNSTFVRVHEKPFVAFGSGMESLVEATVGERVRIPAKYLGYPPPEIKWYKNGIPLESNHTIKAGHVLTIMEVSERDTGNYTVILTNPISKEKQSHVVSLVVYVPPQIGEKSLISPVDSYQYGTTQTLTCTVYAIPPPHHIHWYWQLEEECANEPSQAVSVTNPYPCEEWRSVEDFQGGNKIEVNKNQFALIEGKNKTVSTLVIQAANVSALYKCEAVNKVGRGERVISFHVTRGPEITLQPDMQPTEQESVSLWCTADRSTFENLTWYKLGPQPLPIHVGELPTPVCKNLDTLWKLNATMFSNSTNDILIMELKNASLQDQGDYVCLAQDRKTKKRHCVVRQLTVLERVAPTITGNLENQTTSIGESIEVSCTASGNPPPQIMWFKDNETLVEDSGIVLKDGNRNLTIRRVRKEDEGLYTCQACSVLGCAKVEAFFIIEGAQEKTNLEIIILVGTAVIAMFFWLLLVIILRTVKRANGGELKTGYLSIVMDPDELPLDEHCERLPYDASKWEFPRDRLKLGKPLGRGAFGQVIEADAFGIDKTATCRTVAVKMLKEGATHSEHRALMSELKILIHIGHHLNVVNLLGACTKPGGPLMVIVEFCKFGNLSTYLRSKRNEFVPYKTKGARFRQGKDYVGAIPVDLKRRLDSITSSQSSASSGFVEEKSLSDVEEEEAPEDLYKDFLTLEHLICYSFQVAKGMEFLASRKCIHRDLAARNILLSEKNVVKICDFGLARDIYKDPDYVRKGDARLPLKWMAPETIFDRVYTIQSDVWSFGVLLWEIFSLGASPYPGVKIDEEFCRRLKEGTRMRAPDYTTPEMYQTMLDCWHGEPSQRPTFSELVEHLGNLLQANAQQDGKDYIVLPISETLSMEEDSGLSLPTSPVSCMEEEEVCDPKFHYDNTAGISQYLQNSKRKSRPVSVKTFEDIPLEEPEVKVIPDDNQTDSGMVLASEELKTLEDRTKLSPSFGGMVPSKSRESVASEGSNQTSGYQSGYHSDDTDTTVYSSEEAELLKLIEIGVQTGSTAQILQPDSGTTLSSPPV
# Hgk, sequence (O95819 whole entry, species assumed): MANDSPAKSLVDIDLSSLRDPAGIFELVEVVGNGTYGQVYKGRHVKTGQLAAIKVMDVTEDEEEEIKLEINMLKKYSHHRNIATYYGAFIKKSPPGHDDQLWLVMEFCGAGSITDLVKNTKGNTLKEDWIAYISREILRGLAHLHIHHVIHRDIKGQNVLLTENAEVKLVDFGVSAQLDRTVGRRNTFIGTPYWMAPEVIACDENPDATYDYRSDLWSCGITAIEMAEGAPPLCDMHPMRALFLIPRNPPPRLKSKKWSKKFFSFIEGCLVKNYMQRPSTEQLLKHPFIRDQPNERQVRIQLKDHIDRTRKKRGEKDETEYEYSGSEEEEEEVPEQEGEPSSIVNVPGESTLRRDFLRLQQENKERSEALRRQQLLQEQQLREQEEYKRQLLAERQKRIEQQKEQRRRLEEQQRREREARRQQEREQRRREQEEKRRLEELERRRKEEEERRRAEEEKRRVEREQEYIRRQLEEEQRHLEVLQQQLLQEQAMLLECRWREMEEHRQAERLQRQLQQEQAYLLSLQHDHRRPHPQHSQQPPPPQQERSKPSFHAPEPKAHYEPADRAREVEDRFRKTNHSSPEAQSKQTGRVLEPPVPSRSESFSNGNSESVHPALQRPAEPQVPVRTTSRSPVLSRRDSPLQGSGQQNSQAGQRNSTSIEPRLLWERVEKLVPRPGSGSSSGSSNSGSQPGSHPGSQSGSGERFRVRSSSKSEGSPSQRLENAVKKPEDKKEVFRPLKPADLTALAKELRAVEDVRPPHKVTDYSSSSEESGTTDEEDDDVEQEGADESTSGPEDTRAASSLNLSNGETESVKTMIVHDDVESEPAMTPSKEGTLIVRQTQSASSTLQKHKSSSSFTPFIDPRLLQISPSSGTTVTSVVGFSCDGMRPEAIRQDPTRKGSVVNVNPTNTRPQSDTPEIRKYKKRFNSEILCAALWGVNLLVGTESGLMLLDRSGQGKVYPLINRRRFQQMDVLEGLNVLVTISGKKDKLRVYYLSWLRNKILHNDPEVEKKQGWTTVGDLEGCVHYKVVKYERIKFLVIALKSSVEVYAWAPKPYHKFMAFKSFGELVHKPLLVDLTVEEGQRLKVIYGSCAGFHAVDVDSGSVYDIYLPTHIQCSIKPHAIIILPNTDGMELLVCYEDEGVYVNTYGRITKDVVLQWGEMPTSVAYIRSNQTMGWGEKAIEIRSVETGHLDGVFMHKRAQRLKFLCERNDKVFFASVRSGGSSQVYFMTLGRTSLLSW
SMILES,IC50 [1] [µM],IC50 [2] [µM],IC50 [3] [µM],Kinase having IC50 of <1 μM ([4]; listing of the kinase means IC50 <1 μM),Kinase having IC50 of >1 μM [5],"turbidity threshold (L, M, H) 4.5 [6]","turbidity threshold (L, M, H) 6.8 [6]","turbidity threshold (L, M, H) 7.4 [6]",IC50 [7] [µM],"turbidity threshold (L, M, H) 1.4 [8]",Kinase having IC50 of >1 μM [4]
"N#Cc1cnc2[nH]cc(C(=O)c3c(F)ccc(NS(=O)(=O)c4cccc(F)c4)c3F)c2c1 [Compound P-0005, N-[3-(5-cyano-1H-pyrrolo[2,3-b]pyridine-3-carbonyl)-2,4-difluoro-phenyl]-3-fluoro-benzenesulfonamide]",< 1,< 1,> 20,Hgk,Kdr,M (moderate solubility if the threshold concentration is 31.3 μM to 250 μM),M (moderate solubility if the threshold concentration is 31.3 μM to 250 μM),M (moderate solubility if the threshold concentration is 31.3 μM to 250 μM),> 10,M (moderate solubility if the threshold concentration is 31.3 μM to 250 μM),
"CCCS(=O)(=O)Nc1ccc(F)c(C(=O)c2c[nH]c3ncc(C#N)cc23)c1F [Compound P-0002, propane-1-sulfonic acid [3-(5-cyano-1H-pyrrolo[2,3-b]pyridine-3-carbonyl)-2,4-difluoro-phenyl]-amide]",< 1,< 1,> 20,,Kdr,M (moderate solubility if the threshold concentration is 31.3 μM to 250 μM),M (moderate solubility if the threshold concentration is 31.3 μM to 250 μM),M (moderate solubility if the threshold concentration is 31.3 μM to 250 μM),> 10,M (moderate solubility if the threshold concentration is 31.3 μM to 250 μM),Hgk
"CCCS(=O)(=O)Nc1ccc(F)c(C(=O)c2c[nH]c3ncc(-c4cnc(OC)nc4)cc23)c1F [Compound P-0001, propane-1-sulfonic acid {2,4-difluoro-3-[5-(2-methoxy-pyrimidin-5-yl)-1H-pyrrolo[2,3-b]pyridine-3-carbonyl]-phenyl}-amide]",< 1,< 1,> 20,,Kdr,M (moderate solubility if the threshold concentration is 31.3 μM to 250 μM),M (moderate solubility if the threshold concentration is 31.3 μM to 250 μM),M (moderate solubility if the threshold concentration is 31.3 μM to 250 μM),> 10,M (moderate solubility if the threshold concentration is 31.3 μM to 250 μM),Hgk
"CN(C)S(=O)(=O)Nc1ccc(F)c(C(=O)c2c[nH]c3ncc(C#N)cc23)c1F [Compound P-0007, N,N-dimethylamino-sulfonic acid [3-(5-cyano-1H-pyrrolo[2,3-b]pyridine-3-carbonyl)-2,4-difluoro-phenyl]-amide]",< 2,< 3,> 20,,Kdr,M (moderate solubility if the threshold concentration is 31.3 μM to 250 μM),H (high solubility if the threshold concentration is >250 μM),H (high solubility if the threshold concentration is >250 μM),> 10,M (moderate solubility if the threshold concentration is 31.3 μM to 250 μM),Hgk
"N#Cc1cnc2[nH]cc(C(=O)c3c(F)ccc(NS(=O)(=O)N4CCCC4)c3F)c2c1 [Compound P-0006, pyrrolidine-1-sulfonic acid [3-(5-cyano-1H-pyrrolo[2,3-b]pyridine-3-carbonyl)-2,4-difluoro-phenyl]-amide]",< 1,< 1,,,Kdr,M (moderate solubility if the threshold concentration is 31.3 μM to 250 μM),M (moderate solubility if the threshold concentration is 31.3 μM to 250 μM),M (moderate solubility if the threshold concentration is 31.3 μM to 250 μM),> 10,M (moderate solubility if the threshold concentration is 31.3 μM to 250 μM),Hgk
"CCCS(=O)(=O)Nc1cccc(C(=O)c2c[nH]c3ncc(C#N)cc23)c1F [Compound P-0003, propane-1-sulfonic acid [3-(5-cyano-1H-pyrrolo[2,3-b]pyridine-3-carbonyl)-2-fluoro-phenyl]-amide]",< 2,< 2,> 20,,Kdr,M (moderate solubility if the threshold concentration is 31.3 μM to 250 μM),M (moderate solubility if the threshold concentration is 31.3 μM to 250 μM),M (moderate solubility if the threshold concentration is 31.3 μM to 250 μM),> 10,M (moderate solubility if the threshold concentration is 31.3 μM to 250 μM),Hgk
